Patent US8258135B2, “Quinolizidinone M1 receptor positive allosteric modulators” (Merck Sharp & Dohme Corp., priority 2007, dated 2012)

target: T1, acetylcholine muscarinic M1 receptor (Homo sapiens, UniProt P11229); test: muscarinic FLIPR assay: intracellular calcium in CHOnfat/hM1 cells, potentiation of EC20 acetylcholine; assay type: cell-based; details: not given
T1 construct: expressed in transfected cells; host or cells: CHOnfat (CHO cells, NFAT reporter background) expressing hM1
T1 sequence (P11229 1-460): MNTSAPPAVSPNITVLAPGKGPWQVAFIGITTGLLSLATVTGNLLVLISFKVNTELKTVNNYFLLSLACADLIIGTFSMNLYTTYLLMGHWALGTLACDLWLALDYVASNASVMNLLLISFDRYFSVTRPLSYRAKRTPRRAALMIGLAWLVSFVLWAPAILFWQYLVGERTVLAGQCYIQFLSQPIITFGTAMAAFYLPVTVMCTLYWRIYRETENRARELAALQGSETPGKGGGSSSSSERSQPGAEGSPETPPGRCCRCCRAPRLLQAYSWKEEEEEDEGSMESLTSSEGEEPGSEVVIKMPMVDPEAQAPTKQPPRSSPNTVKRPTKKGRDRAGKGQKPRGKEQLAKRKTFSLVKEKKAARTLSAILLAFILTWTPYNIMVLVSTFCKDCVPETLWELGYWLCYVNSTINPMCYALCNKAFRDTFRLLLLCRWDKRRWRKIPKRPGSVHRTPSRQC
Method: The assay studies the effect of one or several concentrations of test compounds on basal or acetylcholine-stimulated Ca^2+ levels using FLIPR.
Compounds are prepared and subjected to a preincubation period of 4 min. Thereafter, a single EC20 concentration of acetylcholine is added to each well (3 nM final). The intracellular Ca^2+ level of each sample is measured and compared to an acetylcholine control to determine any modulatory activity.
Cells: CHOnfat/hM1, hM2, hM3 or hM4 cells are plated 24 hr before the assay at a density of 18,000 cells/well (100 μL) in a 384 well plate. CHOnfat/hM1 and CHOnfat/hM3 Growth Medium: 90% DMEM (Hi Glucose); 10% HI FBS; 2 mM L-glutamine; 0.1 mM NEAA; Pen-Strep; and 1 mg/ml Geneticin, are added. For M2Gqi5CHOnfat and M4Gqi5CHOnfat cells, an additional 600 ug/ml hygromycin is added.
Equipment: 384 well plate, 120 μL addition plate; 96-well Whatman 2 ml Uniplate Incubator, 37° C., 5% CO2; Skatron EMBLA-384 Plate Washer; Multimek Pipetting System; Genesis Freedom 200 System; Mosquito System; Temo Nanoliter Pipetting System; and FLIPR^384 Fluorometric Imaging Plate Reader System are used.
Buffers. Assay Buffer: Hanks Balanced Salt Solution, with 20 mM Hepes, 2.5 mM Probenecid (Sigma P-8761) first dissolved in 1N NaOH, 1% Bovine Serum Albumin (Sigma A-9647). Dye Loading Buffer: Assay Buffer plus 1% Fetal Bovine Serum and Fluo-4AM/Pluronic Acid Mixture. 2 mM Fluo-4AM ester stock in DMSO (Molecular Probes F-14202) Concentration of 2 uM in buffer for a final concentration of 1 μM in Assay. 20% Pluronic Acid Solution stock, with concentration of 0.04% in Buffer, 0.02% in Assay.
65 μL of 2 mM Fluo-4AM are mixed with 130 μL of 20% Pluronic Acid. The resulting solution and 650 μL FBS is added to the assay buffer for a total volume of 65 mL. Positive Controls: 4-Br-A23187: 10 mM in DMSO; final concentration 10 μM. Acetylcholine: 10 mM in water, working stock at both 20 uM and 30 uM in assay buffer, final concentration of 10 μM. This is used to check the maximum stimulation of the CHOK1/hM1 cells. 20 uM (2×) acetylcholine is added in the preincubation part of the assay, and the 30 uM (3×) stock is added in the second part. (EC20)Acetylcholine: 10 mM in water, working stock of 9 nM (3×), and final concentration in assay is 3 nM. This is used after the preincubation with test compounds. Addition of the EC20) Acetylcholine to each well with a test compound will ascertain any modulator activity. 24 wells contain 3 nM Acetylcholine alone as a control.
Determining Activity of Putative Compounds:
Screening Plate Compounds are titrated in 96-well plates (columns 2-11), 100% DMSO, started at a concentration of 15 mM (150× stock concentration), and 3-fold serial dilutions using Genesis Freedom200 System. Four 96-well plates are combined into a 384-well plate using Mosquito Nanoliter Pipetting System by transferring 1 ul of serial diluted compounds to each well, and 1 mM acetylcholine (100× stock concentration) were added as a control. Using Temo, 49 μl assay buffer is added to each well of the 384-well plate right before assay.
In a 96-well Whatman 2 ml Uniplate, 9 nM Acetylcholine (3×) is pipetted into wells corresponding to the screening compounds, and into control wells. The 30 uM acetylcholine control (3×) is added into control wells, and the 3× agonist plate is transferred into a 384 well plate.
Cells are washed three times with 100 μL of buffer, leaving 30 μL of buffer in each well. Using Multimek, 30 μL of Dye Loading Buffer is added into each well and incubated at […], 5% CO2 for up to one hr.
After 60 min, the cells are washed three times with 100 μL of buffer, leaving 30 μL of buffer in each well. The cell plate, screening plate, and agonist addition plates are placed on the platform in the FLIPR and the door closed. A signal test to check background fluorescence and basal fluorescence signal is performed. Laser intensity is adjusted if necessary. […]

Going from `N#CC1(c2cccnc2)CCN(Cc2cc(C(=O)O)c(=O)n3ccccc23)CC1` [Example 47, 1-[(4-cyano-4-pyridin-3-ylpiperidin-1-yl)methyl]-4-oxo-4H-quinolizine-3-carboxylic acid] to `N#CC1(c2ccccc2)CCN(Cc2cc(C(=O)O)c(=O)n3ccccc23)CC1` [Example 3], the EC50 falls from 363 nM to 152 nM (2.4-fold). The second is the more potent here.

Going from `COc1ccccc1C1(C#N)CCN(Cc2cc(C(=O)O)c(=O)n3ccccc23)CC1` [Example 10] to `Cc1cccc(C2(C#N)CCN(Cc3cc(C(=O)O)c(=O)n4ccccc34)CC2)c1` [Example 8], the EC50 falls from 164 nM to 87 nM (1.9-fold). The second is the more potent here.

Going from `N#CC1(c2cccc(Cl)n2)CCN(Cc2cc(C(=O)O)c(=O)n3ccccc23)CC1` [Example 28] to `N#CC1(c2cccc(F)c2)CCN(Cc2cc(C(=O)O)c(=O)n3ccccc23)CC1` [Example 46, 1-{[4-cyano-4-(3-fluorophenyl)piperidin-1-yl]methyl}-4-oxo-4H-quinolizine-3-carboxylic acid], the EC50 rises from 133 nM to 562 nM (4.2-fold).

With `N#CC1(c2nc3ccccc3s2)CCN(Cc2cc(C(=O)O)c(=O)n3ccccc23)CC1` [Example 45] the EC50 was 91 nM.

same assay, conditions: CHOnfat/hM1 cells, FLIPR, 4 min preincubation, then EC20 acetylcholine (3 nM final); read-out: IP Value (inflection point)

Compared with `C=Cc1cccnc1C1(C#N)CCN(Cc2cc(C(=O)O)c(=O)n3ccccc23)CC1` [Example 49, 1-{[4-cyano-4-(3-vinylpyridin-2-yl)piperidin-1-yl]methyl}-4-oxo-4H-quinolizine-3-carboxylic acid], `N#CC1(c2ncccc2Br)CCN(Cc2cc(C(=O)O)c(=O)n3ccccc23)CC1` [Example 48, 1-{[4-(3-bromopyridin-2-yl)-4-cyanopiperidin-1-yl]methyl}-4-oxo-4H-quinolizine-3-carboxylic acid] is 1.9-fold lower in EC50: 6300 nM for the first, 3400 nM for the second.

Going from `N#CC1(c2cnc3ccccc3n2)CCN(Cc2cc(C(=O)O)c(=O)n3ccccc23)CC1` [Example 42] to `C=Cc1ccc(C2(C#N)CCN(Cc3cc(C(=O)O)c(=O)n4ccccc34)CC2)nc1` [Example 50, 1-{[4-cyano-4-(5-vinylpyridin-2-yl)piperidine-1-yl]methyl}-4-oxo-4H-quinolizine-3-carboxylic acid], the EC50 falls from 1240 nM to 403 nM (3.1-fold).
